Converted amounts (≈) assume the structure as drawn.
What was measured:
[1] = biological target: Serine/threonine-protein kinase mTOR (Homo sapiens, UniProt P42345); test: Inhibition of recombinant N-terminal GST-tagged mTOR-mediated 4E-BP1 phosphorylation after 60 mins by TR-FRET assay
[2] = biological target: Phosphatidylinositol 4,5-bisphosphate 3-kinase catalytic subunit alpha isoform (Homo sapiens, UniProt P42336); test: Inhibition of human PI3Kalpha using PI(4,5)P2 as substrate after 20 mins by alphascreen assay in presence of 20 uM ATP
Mus musculus [3] = test: In vivo inhibition of PI3Kalpha-mediated Akt phosphorylation in nu/nu CD1 mouse xenografted with U87MG tumor; assay type: functional, organism-based; settings: CD1, U-87 MG
[4] = biological target: T1, Phosphatidylinositol 4,5-bisphosphate 3-kinase catalytic subunit delta isoform (Homo sapiens, UniProt O00329); test: Inhibition of human N-terminal His-tagged PI3Kdelta expressed in insect Sf9 cells using PI(4,5)P2 as substrate after 20 mins by alphascreen assay in presence of 8 uM ATP
T1 sequence (O00329 whole entry): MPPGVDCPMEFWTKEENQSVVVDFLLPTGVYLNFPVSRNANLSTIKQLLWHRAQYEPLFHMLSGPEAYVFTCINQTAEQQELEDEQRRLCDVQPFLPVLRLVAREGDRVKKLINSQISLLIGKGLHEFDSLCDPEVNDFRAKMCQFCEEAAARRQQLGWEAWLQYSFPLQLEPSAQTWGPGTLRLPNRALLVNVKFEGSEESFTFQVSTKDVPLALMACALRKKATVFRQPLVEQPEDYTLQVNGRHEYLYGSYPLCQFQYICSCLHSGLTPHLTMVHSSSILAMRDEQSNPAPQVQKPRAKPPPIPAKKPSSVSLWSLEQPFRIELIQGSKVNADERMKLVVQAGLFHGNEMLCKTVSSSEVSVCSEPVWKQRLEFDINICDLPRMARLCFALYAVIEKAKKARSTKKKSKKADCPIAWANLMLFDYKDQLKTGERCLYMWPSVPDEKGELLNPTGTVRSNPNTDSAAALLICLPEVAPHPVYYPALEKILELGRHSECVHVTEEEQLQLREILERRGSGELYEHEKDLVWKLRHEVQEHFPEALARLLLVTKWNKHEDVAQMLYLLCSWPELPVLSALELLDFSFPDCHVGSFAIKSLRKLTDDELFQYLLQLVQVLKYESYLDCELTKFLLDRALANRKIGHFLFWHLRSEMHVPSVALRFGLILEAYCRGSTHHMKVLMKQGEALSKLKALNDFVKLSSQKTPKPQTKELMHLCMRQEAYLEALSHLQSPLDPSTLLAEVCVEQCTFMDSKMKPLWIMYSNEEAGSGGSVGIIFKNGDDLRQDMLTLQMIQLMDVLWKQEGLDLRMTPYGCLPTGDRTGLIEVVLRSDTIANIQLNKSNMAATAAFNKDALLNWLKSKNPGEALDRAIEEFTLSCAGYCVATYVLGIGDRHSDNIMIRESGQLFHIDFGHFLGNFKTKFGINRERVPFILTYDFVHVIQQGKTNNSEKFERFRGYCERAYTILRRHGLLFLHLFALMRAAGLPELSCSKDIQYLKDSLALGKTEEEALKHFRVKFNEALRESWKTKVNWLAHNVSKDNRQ

[5] = Antitumor activity against human U87MG tumor xenografted in nu/nu CD1 mouse assessed as inhibition of tumor growth at 1 mg/kg, po qd; assay type: functional, U-87MG ATCC; settings: U-87 MG, read-out: GI
[6] = biological target: Phosphatidylinositol 4,5-bisphosphate 3-kinase catalytic subunit beta isoform (Homo sapiens, UniProt P42338); test: Inhibition of human N-terminal His-tagged PI3Kbeta expressed in insect Sf9 cells using PI(4,5)P2 as substrate after 20 mins by alphascreen assay in presence of 20 uM ATP
Plasma = Plasma EC50 for pAkt inhibition in nu/nu CD1 mouse xenografted with U87 MG tumor
[7] = biological target: Phosphatidylinositol 4,5-bisphosphate 3-kinase catalytic subunit gamma isoform (Homo sapiens, UniProt P48736); test: Inhibition of human N-terminal His-tagged PI3Kgamma expressed in insect Sf9 cells using PI(4,5)P2 as substrate after 20 mins by alphascreen assay in presence of 8 uM ATP
[8] = Oral bioavailability in Sprague-Dawley rat at 2 mg/kg; assay type: ADME, organism-based; settings: in vivo
[9] = Volume of distribution in iv dosed Sprague-Dawley rat; assay type: ADME, organism-based; settings: in vivo
[10] = Antitumor activity against human U87MG tumor xenografted in po dosed nu/nu CD1 mouse assessed as tumor growth delay; assay type: functional, U-87MG ATCC; settings: U-87 MG
[11] = Ratio of drug level in tumor to plasma in nu/nu CD1 mouse xenografted with U87MG tumor at 1 mg/kg, po administered as single dose measured upto 8 hrs; assay type: ADME, organism-based; design: dose 1 mg/kg, route oral; settings: tumor and plasma
Rattus norvegicus [12] = test: Liver blood flow in iv dosed Sprague-Dawley rat; assay type: ADME, organism-based; settings: in vivo
[13] = Ratio of drug level in tumor to plasma in nu/nu CD1 mouse xenografted with U87MG tumor at 3 mg/kg, po administered as single dose measured upto 16 hrs; assay type: ADME, organism-based; design: dose 3 mg/kg, route oral; settings: tumor and plasma
[14] = Elimination half life in iv dosed Sprague-Dawley rat; assay type: ADME, organism-based; settings: in vivo, read-out: beta t1/2 (converted)
[15] = AUC (0 to 24 hrs) in plasma of nu/nu CD1 mouse xenografted with human U87MG cells at ED50; assay type: ADME, organism-based, U-87MG ATCC; design: time < 24 hr
Mus musculus [16] = test: Toxicity in nu/nu CD1 mouse xenografted with human U87MG cells assessed as weight loss at 3 mg/kg, po relative to control; assay type: organism-based, U-87MG ATCC; design: dose 3 mg/kg, route oral; settings: in vivo
[17] = AUC in Sprague-Dawley rat at 2 mg/kg, po; assay type: ADME, organism-based; design: dose 2 mg/kg, route oral; settings: plasma
[18] = Clearance in iv dosed Sprague-Dawley rat; assay type: ADME, organism-based; settings: in vivo
Rattus norvegicus [19] = species: Rattus norvegicus; test: Liver blood flow in Sprague-Dawley rat; assay type: ADME, organism-based
[20] = Clearance in cynomolgus monkey liver microsomes; assay type: ADME, Macaca fascicularis, Microsome
in vitro [21] = settings: human, liver microsomes
Description: Clearance in human liver microsomes

Canis familiaris = species: Canis familiaris; test: Liver blood flow in Beagle dog; assay type: ADME, organism-based, Canis lupus familiaris
[22] = Clearance in mouse liver microsomes; assay type: ADME, Microsome
[23] = Clearance in Beagle dog liver microsomes; assay type: ADME, Canis lupus familiaris, Microsome
Mus musculus [24] = species: Mus musculus; test: Liver blood flow in mouse; assay type: ADME, organism-based
in vitro [25] = settings: Sprague-Dawley, rat, liver microsomes
Description: Clearance in Sprague-Dawley rat liver microsomes

Phosphatidylinositol 4,5-bisphosphate 3-kinase catalytic subunit alpha isoform, sequence (P42336 whole entry, canonical isoform): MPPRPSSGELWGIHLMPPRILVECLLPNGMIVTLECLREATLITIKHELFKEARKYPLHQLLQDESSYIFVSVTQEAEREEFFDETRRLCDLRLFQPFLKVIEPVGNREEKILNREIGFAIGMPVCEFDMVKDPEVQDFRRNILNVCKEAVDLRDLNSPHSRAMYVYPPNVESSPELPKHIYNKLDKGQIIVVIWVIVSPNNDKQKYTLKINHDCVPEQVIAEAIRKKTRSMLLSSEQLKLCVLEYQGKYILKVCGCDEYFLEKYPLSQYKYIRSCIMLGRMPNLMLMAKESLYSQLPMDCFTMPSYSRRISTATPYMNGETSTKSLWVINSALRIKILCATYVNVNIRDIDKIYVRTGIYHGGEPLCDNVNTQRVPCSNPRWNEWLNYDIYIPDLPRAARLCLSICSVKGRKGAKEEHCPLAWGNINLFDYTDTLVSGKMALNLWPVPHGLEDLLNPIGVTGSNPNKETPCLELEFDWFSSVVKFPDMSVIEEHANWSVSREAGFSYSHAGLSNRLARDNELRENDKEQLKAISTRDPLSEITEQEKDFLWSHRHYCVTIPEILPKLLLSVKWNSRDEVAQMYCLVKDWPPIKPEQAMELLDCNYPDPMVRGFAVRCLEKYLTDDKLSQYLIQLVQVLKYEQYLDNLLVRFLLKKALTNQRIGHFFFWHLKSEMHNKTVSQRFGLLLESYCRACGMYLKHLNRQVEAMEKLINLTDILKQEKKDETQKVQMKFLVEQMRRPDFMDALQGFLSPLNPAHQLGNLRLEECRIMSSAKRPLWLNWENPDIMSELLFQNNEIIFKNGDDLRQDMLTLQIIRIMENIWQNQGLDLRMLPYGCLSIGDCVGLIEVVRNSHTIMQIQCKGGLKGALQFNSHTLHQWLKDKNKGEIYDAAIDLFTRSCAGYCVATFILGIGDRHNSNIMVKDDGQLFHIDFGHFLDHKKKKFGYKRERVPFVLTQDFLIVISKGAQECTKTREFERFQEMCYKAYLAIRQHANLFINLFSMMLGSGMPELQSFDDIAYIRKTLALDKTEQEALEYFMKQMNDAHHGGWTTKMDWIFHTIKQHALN
Phosphatidylinositol 4,5-bisphosphate 3-kinase catalytic subunit beta isoform, sequence (P42338 whole entry, canonical isoform): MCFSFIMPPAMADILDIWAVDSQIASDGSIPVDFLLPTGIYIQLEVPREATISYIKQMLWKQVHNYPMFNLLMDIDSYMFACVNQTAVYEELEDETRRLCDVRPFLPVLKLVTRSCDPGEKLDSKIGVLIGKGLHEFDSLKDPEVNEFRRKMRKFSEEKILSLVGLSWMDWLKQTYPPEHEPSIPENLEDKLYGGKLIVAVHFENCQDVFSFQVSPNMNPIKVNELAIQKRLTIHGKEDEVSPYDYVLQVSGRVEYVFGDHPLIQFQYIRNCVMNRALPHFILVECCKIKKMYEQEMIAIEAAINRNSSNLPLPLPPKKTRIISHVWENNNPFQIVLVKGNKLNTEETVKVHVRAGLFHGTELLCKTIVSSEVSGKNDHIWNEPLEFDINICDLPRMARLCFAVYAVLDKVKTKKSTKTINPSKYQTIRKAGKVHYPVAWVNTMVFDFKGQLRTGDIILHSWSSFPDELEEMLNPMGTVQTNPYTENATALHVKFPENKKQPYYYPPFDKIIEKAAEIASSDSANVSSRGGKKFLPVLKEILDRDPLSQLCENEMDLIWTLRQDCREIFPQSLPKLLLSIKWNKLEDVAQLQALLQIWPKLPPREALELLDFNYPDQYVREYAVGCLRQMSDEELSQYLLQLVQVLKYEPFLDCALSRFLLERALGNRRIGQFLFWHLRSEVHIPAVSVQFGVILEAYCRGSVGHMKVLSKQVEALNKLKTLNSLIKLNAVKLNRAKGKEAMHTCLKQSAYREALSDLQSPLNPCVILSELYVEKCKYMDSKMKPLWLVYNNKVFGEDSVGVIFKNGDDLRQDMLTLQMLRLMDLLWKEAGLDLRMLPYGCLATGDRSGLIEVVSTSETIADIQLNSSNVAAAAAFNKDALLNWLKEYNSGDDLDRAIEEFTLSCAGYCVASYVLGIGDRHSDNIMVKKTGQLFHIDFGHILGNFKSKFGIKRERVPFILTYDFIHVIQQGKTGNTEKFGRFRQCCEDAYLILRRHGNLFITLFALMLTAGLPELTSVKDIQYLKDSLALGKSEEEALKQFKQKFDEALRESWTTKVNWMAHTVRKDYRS
Phosphatidylinositol 4,5-bisphosphate 3-kinase catalytic subunit gamma isoform, sequence (P48736 whole entry, canonical isoform): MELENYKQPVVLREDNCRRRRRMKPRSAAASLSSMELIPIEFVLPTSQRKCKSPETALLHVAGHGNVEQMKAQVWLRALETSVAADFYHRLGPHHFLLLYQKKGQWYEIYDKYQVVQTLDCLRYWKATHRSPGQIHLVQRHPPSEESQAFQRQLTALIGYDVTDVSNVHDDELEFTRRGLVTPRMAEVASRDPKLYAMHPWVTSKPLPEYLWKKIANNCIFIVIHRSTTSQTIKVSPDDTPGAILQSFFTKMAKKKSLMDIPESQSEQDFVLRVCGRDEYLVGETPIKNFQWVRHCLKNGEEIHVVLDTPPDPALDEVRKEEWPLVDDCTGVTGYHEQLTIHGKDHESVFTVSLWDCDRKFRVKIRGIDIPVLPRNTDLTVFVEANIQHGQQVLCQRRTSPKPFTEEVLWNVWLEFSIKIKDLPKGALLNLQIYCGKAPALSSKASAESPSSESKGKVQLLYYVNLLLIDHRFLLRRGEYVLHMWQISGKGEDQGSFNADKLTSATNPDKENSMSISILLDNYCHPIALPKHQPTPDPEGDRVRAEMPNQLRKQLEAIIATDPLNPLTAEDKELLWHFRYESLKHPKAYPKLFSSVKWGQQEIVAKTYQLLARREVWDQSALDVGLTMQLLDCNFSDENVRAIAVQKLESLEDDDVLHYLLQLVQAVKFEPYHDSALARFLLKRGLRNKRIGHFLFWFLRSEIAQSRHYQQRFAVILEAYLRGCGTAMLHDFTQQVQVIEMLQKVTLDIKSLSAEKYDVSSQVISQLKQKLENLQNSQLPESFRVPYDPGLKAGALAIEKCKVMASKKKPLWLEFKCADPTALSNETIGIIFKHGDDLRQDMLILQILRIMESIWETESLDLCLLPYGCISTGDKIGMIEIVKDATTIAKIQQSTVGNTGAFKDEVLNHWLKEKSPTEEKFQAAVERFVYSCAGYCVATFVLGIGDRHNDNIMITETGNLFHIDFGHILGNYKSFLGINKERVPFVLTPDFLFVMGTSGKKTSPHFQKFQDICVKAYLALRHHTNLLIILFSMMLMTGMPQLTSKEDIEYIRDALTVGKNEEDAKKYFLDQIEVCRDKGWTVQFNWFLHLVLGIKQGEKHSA

IC50 [1] | Ki [2] | Compound | other results
6.6 nM | 1.2 nM | CC(=O)Nc1cn2cc(-c3cnc(Cl)c(NS(=O)(=O)c4ccc(F)cc4)c3)ccc2n1 | –
20 nM | 2.8 nM | Nc1cn2cc(-c3cnc(Cl)c(NS(=O)(=O)c4ccc(F)cc4)c3)ccc2n1 | –
70 nM | 7.2 nM | Nc1nc2ccc(-c3cnc(Cl)c(NS(=O)(=O)c4ccc(F)cc4)c3)cc2o1 | –
20 nM | 3.3 nM | CC(=O)Nc1nc2ccc(-c3cnc(Cl)c(NS(=O)(=O)c4ccc(F)cc4)c3)cc2[nH]1 | –
24 nM | – | Nc1nc2ccc(-c3cnc(Cl)c(NS(=O)(=O)c4ccc(F)cc4)c3)cc2s1 | –
0.4 nM | 1.4 nM | CC(=O)Nc1cn2nc(-c3cnc(Cl)c(NS(=O)(=O)c4ccc(F)cc4)c3)ccc2n1 | EC50 (Mus musculus [3]): 0.232 µg/mL (≈ 0.503 µM); Ki [4]: 0.8 nM; inhibition in vivo at 1 mg/kg [5]: 49%; Ki [6]: 3.5 nM; EC50 (Plasma): 500 nM; Ki [7]: 1.9 nM; bioavailability [8]: 46%; Vd [9]: 0.27 L/kg; ED50 [10]: 0.7 mg/kg; Kp at 8 h [11]: 0.13; QH (Rattus norvegicus [12]): 1.2%; Kp at 16 h [13]: 0.27; half-life [14]: 7 h; AUC(0-t) at 24 h [15]: 9200 ng·h/mL; Activity (Mus musculus [16]): < 5%; AUC [17]: 11500 ng·h/mL; clearance [18]: 0.667 mL/min/kg
> 25000 nM | 51 nM | O=S(=O)(Nc1cc(-c2ccc3nncn3c2)cnc1Cl)c1ccc(F)cc1 | –
76 nM | 26 nM | O=S(=O)(Nc1cc(-c2ccc3ncoc3c2)cnc1Cl)c1ccc(F)cc1 | –
229 nM | 23 nM | O=S(=O)(Nc1cc(-c2ccc3nccn3c2)cnc1Cl)c1ccc(F)cc1 | –
430 nM | 119 nM | Nc1nc2ccc(-c3cnc(Cl)c(NS(=O)(=O)c4ccc(F)cc4)c3)cc2[nH]1 | –
446 nM | 68 nM | O=S(=O)(Nc1cc(-c2ccc3nc[nH]c3c2)cnc1Cl)c1ccc(F)cc1 | –
– | – | CC(=O)Nc1nc2ccc(-c3cnc(Cl)c(NS(=O)(=O)c4ccc(F)cc4)c3)cc2s1 | QH (Rattus norvegicus [19]): 0.2%; microsomal CLint [20]: < 26 µL/min/mg; microsomal CLint (in vitro [21]): < 26 µL/min/mg; QH (Canis familiaris): 0.2%; microsomal CLint [22]: < 26 µL/min/mg; microsomal CLint [23]: < 26 µL/min/mg; QH (Mus musculus [24]): 0.2%; microsomal CLint (in vitro [25]): < 26 µL/min/mg
33 nM | – | O=S(=O)(Nc1cc(-c2ccc3ncsc3c2)cnc1Cl)c1ccc(F)cc1 | –
49 nM | 6.1 nM | O=S(=O)(Nc1cc(-c2ccc3nccn3n2)cnc1Cl)c1ccc(F)cc1 | –
35 nM | 11 nM | Nc1cn2nc(-c3cnc(Cl)c(NS(=O)(=O)c4ccc(F)cc4)c3)ccc2n1 | –
146 nM | 47 nM | CC(=O)Nc1nc2ccc(-c3cnc(Cl)c(NS(=O)(=O)c4ccc(F)cc4)c3)cc2o1 | –
292 nM | 76 nM | O=S(=O)(Nc1cc(-c2ccc3sncc3c2)cnc1Cl)c1ccc(F)cc1 | –
